Consider 29 molecules from patent publication US7618990B2, “Oxazolidone derivatives as PR modulators” (Wyeth, priority 2006, dated 2009).

In general, melting point refers to the temperature of the solid-liquid transition. The IC50 is the point on the concentration scale where inhibition reaches its midpoint. Usually inhibition stands for the share of the control response that was lost under treatment.

Data set [1] has as its system alkaline phosphatase activity in T47D cells. Nature of the data set: Effects of progestins and antiprogestins on alkaline phosphatase activity in T47D cells (antagonist mode). In kind it is cell-based. Particulars: Homo sapiens, in the presence of 1 nM progesterone, read-out: T47D Alkaline Phosphatase Activity IC50 (nM) or % inhibition; for IC50: 24 h; for inhibition at 3 µM: % inhibition at 3000 nM. As to the method:
(1) Effects of Progestins and Antiprogestins on Alkaline Phosphatase Activity in T47D Cells
PURPOSE: To identify progestins or antiprogestins by determining a compound's effect on alkaline phosphatase activity in T47D cells.
Culture Medium: • DMEM:F12 (1:1) (GIBCO, BRL) supplemented with 5% (v/v) charcoal stripped fetal bovine serum (not heat-inactivated), 100 U/mL penicillin, 100 μg/mL streptomycin, and 2 mM the GlutaMax™ reagent (GIBCO, BRL).
Alkaline Phosphatase Assay Buffer: • I. 0.1M Tris-HCl, pH 9.8, containing 0.2% the Triton® X-100 reagent • II. 0.1M Tris-HCl, pH 9.8, containing 4 mM p-nitrophenyl phosphate (Sigma). B. Cell Culture and Treatment:
Frozen T47D cells were thawed in a 37° C. water bath and diluted to 280,000 cells/mL in culture medium. To each well in a 96-well plate (Falcon, Becton Dickinson Labware), 180 μL of diluted cell suspension was added.
Twenty μL of reference or test compounds diluted in the culture medium was then added to each well. When testing for progestin antagonist activity, reference antiprogestins or test compounds were added in the presence of 1 nM progesterone. The cells were incubated at 37° C. in a 5% CO2/humidified atmosphere for 24 h.
NOTE: For high throughput screening, one concentration of each compound was tested at 0.3 μg/mL. Based on an average molecular weight of 300 g/mol for the compounds in the library, the concentration was approximately 1 μM. Subsequently, active compounds were tested in dose response assays to determine EC50 and IC50. C. Alkaline Phosphatase Enzyme Assay:
At the end of treatment, the medium was removed from the plate. Fifty μL of assay buffer I was added to each well. The plates were shaken in a titer plate shaker for 15 min. Then 150 μL of assay buffer II was added to each well. Optical density measurements were taken at 5 min intervals for 30 min at a test wavelength of 405 nm.
For reference and test compounds, a dose response curve was generated for dose (X-axis) vs. the rate of enzyme reaction (slope) (Y-axis). Square root-transformed data was used for analysis of variance and nonlinear dose response curve fitting for both agonist and antagonist modes. Huber weighting was used to down-weight the effects of outliers. EC50 or IC50 values were calculated from the retransformed values. JMP software (SAS Institute, Inc.) was used for both one-way analysis of variance and non-linear dose response analysis in both single dose and dose response studies.
Progesterone and trimegestone were reference progestins and RU486 was the reference antiprogestin. All reference compounds were run in full dose response curves and the EC50 and IC50 values were calculated.

For the molecule `CC1(C)COC(=O)N1c1nc(-c2ccc(C#N)cc2)cs1` [Example 6, 4-[2-(4,4-Dimethyl-2-oxo-1,3-oxazolidin-3-yl)-1,3-thiazol-4-yl]benzonitrile], the melting point lay in the range of 183 to 185 °C. For the same molecule, the half-maximal inhibitory concentration (IC50) in data set [1] was found to be 3.1 nM. For the molecule `CC[C@H]1COC(=O)N1c1nc(-c2ccc(Br)cc2)c(F)s1` [Example 11, (4S)-3-[4-(4-Bromophenyl)-5-fluoro-1,3-thiazol-2-yl]-4-ethyl-1,3-oxazolidin-2-one], the melting point was in the range of 105 to 107 °C. Further, the IC50 in data set [1] was found to be 120 nM. Molecule `CC[C@H]1COC(=O)N1c1nc(-c2ccc(C#N)cc2)c(F)s1` [Example 12, 4-{2-[(4S)-4-Ethyl-2-oxo-1,3-oxazolidin-3-yl]-5-fluoro-1,3-thiazol-4-yl}benzonitrile] registered a melting point of 157 to 159 °C. The IC50 in data set [1] is 23.3 nM.

`CC[C@H]1COC(=O)N1c1nc(-c2ccc(Br)cc2)c(Cl)s1` [Example 13, (4S)-3-[4-(4-Bromophenyl)-5-chloro-1,3-thiazol-2-yl]-4-ethyl-1,3-oxazolidin-2-one]: the melting point fell in the range of 137 to 139 °C. The IC50 in data set [1] is 124 nM.

Molecule `CC[C@H]1COC(=O)N1c1nc(-c2ccc(C#N)cc2)c(Cl)s1` [Example 14, 4-{5-Chloro-2-[(4S)-4-ethyl-2-oxo-1,3-oxazolidin-3-yl]-1,3-thiazol-4-yl}benzonitrile] displayed a melting point of 157 to 159 °C. The IC50 in data set [1] stood at 294 nM.

In the case of `CC[C@H]1COC(=O)N1c1nc(-c2ccc(C#N)cc2)c(C#N)s1` [Example 15, 4-(4-Cyanophenyl)-2-[(4S)-4-ethyl-2-oxo-1,3-oxazolidin-3-yl]-1,3-thiazole-5-carbonitrile], the melting point is 201 to 203 °C. Further, the IC50 in data set [1] stood at 144 nM. `C[C@@H]1COC(=O)N1c1nc(-c2cccc(Br)c2)cs1` [Example 16, (4R)-3-[4-(3-bromophenyl)-1,3-thiazol-2-yl]-4-methyl-1,3-oxazolidin-2-one] came in with a melting point of 126 to 128 °C. The 50% inhibitory concentration (IC50) in data set [1] turned out to be 142 nM.

As for `CC1(C)COC(=O)N1c1nc(-c2cc(Cl)cc(Cl)c2)cs1` [Example 116, 3-[4-(3,5-Dichlorophenyl)-1,3-thiazol-2-yl]-4,4-dimethyl-1,3-oxazolidin-2-one], the concentration for half-maximal inhibition (IC50) in data set [1] amounted to 461 nM. On to `CC1(C)COC(=O)N1c1nc(-c2ccc(F)c(Cl)c2)cs1` [Example 117, 3-[4-(3-Chloro-4-fluorophenyl)-1,3-thiazol-2-yl]-4,4-dimethyl-1,3-oxazolidin-2-one], for which the 50% inhibitory concentration (IC50) in data set [1] is 50.4 nM. Regarding `CC1(C)COC(=O)N1c1nc(-c2ccc(Cl)cc2Cl)cs1` [Example 118, 3-[4-(2,4-Dichlorophenyl)-1,3-thiazol-2-yl]-4,4-dimethyl-1,3-oxazolidin-2-one], in data set [1] (% inhibition at 30 nM), the inhibition at 0.03 µM turned out to be 60%. Take `CC1(C)COC(=O)N1c1nc(-c2ccc(Cl)c(Cl)c2)cs1` [Example 119, 3-[4-(3,4-Dichlorophenyl)-1,3-thiazol-2-yl]-4,4-dimethyl-1,3-oxazolidin-2-one]: in data set [1], the IC50 came out at 48 nM. Regarding `CC1(C)COC(=O)N1c1nc(-c2ccccc2)cs1` [Example 120, 4,4-Dimethyl-3-(4-phenyl-1,3-thiazol-2-yl)-1,3-oxazolidin-2-one], in data set [1], the concentration for half-maximal inhibition (IC50) was 247 nM.

As to `Cc1ccc(-c2csc(N3C(=O)OCC3(C)C)n2)cc1` [Example 121, 4,4-Dimethyl-3-[4-(4-methylphenyl)-1,3-thiazol-2-yl]-1,3-oxazolidin-2-one], in data set [1], the concentration for half-maximal inhibition (IC50) is 110 nM. On to `CC1(C)COC(=O)N1c1nc(-c2ccc3ccccc3c2)cs1` [Example 122, 4,4-Dimethyl-3-[4-(2-naphthyl)-1,3-thiazol-2-yl]-1,3-oxazolidin-2-one], for which the IC50 in data set [1] was found to be 557 nM.

As to `CC1(C)COC(=O)N1c1nc(-c2ccccc2[N+](=O)[O-])cs1` [Example 123, 4,4-Dimethyl-3-[4-(2-nitrophenyl)-1,3-thiazol-2-yl]-1,3-oxazolidin-2-one], the IC50 in data set [1] was 1420 nM. Same read-out and setting: the result for `CC1(C)COC(=O)N1c1nc(-c2cccc([N+](=O)[O-])c2)cs1` [Example 124, 4,4-Dimethyl-3-[4-(3-nitrophenyl)-1,3-thiazol-2-yl]-1,3-oxazolidin-2-one] reads 59.7 nM. In the case of `CC1(C)COC(=O)N1c1nc(-c2ccc(OCc3ccccc3)cc2)cs1` [Example 125, 3-{4-[4-(Benzyloxy)phenyl]-1,3-thiazol-2-yl}-4,4-dimethyl-1,3-oxazolidin-2-one], the inhibition at 3 µM in data set [1] stood at 80%.

Turning to `Cc1cc(-c2csc(N3C(=O)OCC3(C)C)n2)ccc1F` [Example 126, 3-[4-(4-Fluoro-3-methylphenyl)-1,3-thiazol-2-yl]-4,4-dimethyl-1,3-oxazolidin-2-one], the 50% inhibitory concentration (IC50) in data set [1] stood at 33.4 nM.

In the case of `CC1(C)COC(=O)N1c1nc(-c2ccc(Oc3ccccc3)cc2)cs1` [Example 127, 4,4-Dimethyl-3-[4-(4-phenoxyphenyl)-1,3-thiazol-2-yl]-1,3-oxazolidin-2-one], the inhibition at 3 µM in data set [1] was found to be 87%.

For the molecule `CC1(C)COC(=O)N1c1nc(-c2ccc(-c3ccccc3)cc2)cs1` [Example 128, 3-(4-Biphenyl-4-yl-1,3-thiazol-2-yl)-4,4-dimethyl-1,3-oxazolidin-2-one], in data set [1], the inhibition at 3 µM turned out to be 47%.

As to `COC(=O)c1ccc(-c2csc(N3C(=O)OCC3(C)C)n2)cc1` [Example 129, Methyl 4-[2-(4,4-dimethyl-2-oxo-1,3-oxazolidin-3-yl)-1,3-thiazol-4-yl]benzoate], the half-inhibitory concentration (IC50) in data set [1] amounted to 20.3 nM.

For the molecule `COC(=O)c1ccc(-c2nc(N3C(=O)OCC3(C)C)sc2Cl)cc1` [Example 130, Methyl 4-[5-chloro-2-(4,4-dimethyl-2-oxo-1,3-oxazolidin-3-yl)-1,3-thiazol-4-yl]benzoate], the IC50 in data set [1] was 181 nM.

Take `O=C1OCCN1c1nc(-c2ccc(Cl)cc2)cs1` [Example 131, 3-[4-(4-Chlorophenyl)-1,3-thiazol-2-yl]-1,3-oxazolidin-2-one]: the IC50 in data set [1] worked out at 41.1 nM. Same read-out and setting: the result for `N#Cc1ccc(-c2csc(N3CCOC3=O)n2)cc1` [Example 132, 4-[2-(2-Oxo-1,3-oxazolidin-3-yl)-1,3-thiazol-4-yl]benzonitrile] reads 37.6 nM; that for `Cn1cc(-c2csc(N3C(=O)OCC3(C)C)n2)cc1C#N` [Example 133, 4-[2-(4,4-Dimethyl-2-oxo-1,3-oxazolidin-3-yl)-1,3-thiazol-4-yl]-1-methyl-1H-pyrrole-2-carbonitrile], 69.6 nM. As for `Cn1cc(C#N)cc1-c1csc(N2C(=O)OCC2(C)C)n1` [Example 134, 5-[2-(4,4-Dimethyl-2-oxo-1,3-oxazolidin-3-yl)-1,3-thiazol-4-yl]-1-methyl-1H-pyrrole-3-carbonitrile], in data set [1], the IC50 is 284 nM.

On to `CC1(C)CO/C(=N\C#N)N1c1nc(-c2ccc(C#N)cc2)cs1` [Example 135, {(2Z)-3-[4-(4-cyanophenyl)-1,3-thiazol-2-yl]-4,4-dimethyl-1,3-oxazolidin-2-ylidene}cyanamide], for which the IC50 in data set [1] amounted to 64.4 nM. On to `CC1(C)CO/C(=N\S(C)(=O)=O)N1c1nc(-c2ccc(C#N)cc2)cs1` [Example 136, N-{(2Z)-3-[4-(4-Cyanophenyl)-1,3-thiazol-2-yl]-4,4-dimethyl-1,3-oxazolidin-2-ylidene}methanesulfonamide], for which, in data set [1], the inhibition at 3 µM is 100%.

Turning to `CC(=O)/N=C1\OCC(C)(C)N1c1nc(-c2ccc(C#N)cc2)cs1` [Example 137, N-{(2Z)-3-[4-(4-Cyanophenyl)-1,3-thiazol-2-yl]-4,4-dimethyl-1,3-oxazolidin-2-ylidene}acetamide], in data set [1], the half-inhibitory concentration (IC50) was determined as 10.8 nM.
